Drawing on ChEMBL document CHEMBL1240317, “Probing cell-division phenotype space and Polo-like kinase function using small molecules” (Nat Chem Biol, 2006), this text covers Activity for 47 compounds.

Calls of active or inactive are those of the source.

Holding throughout (assay type): functional, cell-based
For assay [1], the system named is BSC-1. Kind of assay: Induction of deffects in mitotic spindle in african green monkey BSC1 cells at 20 uM after 4 hrs by immunocytochemistry. As to conditions: Chlorocebus aethiops.
In assay [2] the test system is BSC-1. In words: Antimitotic activity against african green monkey BSC1 cells assessed as induction of bipolar spindles with decrease in pole to pole distance at 20 uM by immunofluorescence microscopy. As to conditions: Chlorocebus aethiops.
For assay [3], the system named is BSC-1. In words: Antimitotic activity against african green monkey BSC1 cells assessed as induction of chromosome alignment deffects at 20 uM by immunofluorescence microscopy. As to conditions: Chlorocebus aethiops.
Assay [4] concerns U2OS. Kind of assay: Reduction in gamma-tubulin level in centrosomes in human U2OS cells at 250 uM after 4 hrs by immunofluorescence.
Assay [5] has as its system U2OS. In words: Disruption of interphase microtubule organization in human U2OS cells at 250 uM after 4 hrs by immunofluorescence.
For assay [6], the system named is BSC-1. Kind of assay: Antimitotic activity against african green monkey BSC1 cells assessed as induction of monopolar spindles and spindle pole deffects at 20 uM by immunofluorescence microscopy. As to conditions: Chlorocebus aethiops.
Assay [7] deals with BSC-1. In words: Induction of reduced mitotic index in african green monkey BSC1 cells at 20 uM after 4 hrs by immunocytochemistry. As to conditions: Chlorocebus aethiops.
Assay [8] relates to BSC-1. In words: Induction of severe microtubule disruption in african green monkey BSC1 cells at 20 uM after 4 hrs by immunocytochemistry. As to conditions: Chlorocebus aethiops.
The subject of assay [9] is BSC-1. Kind of assay: Antimitotic activity against african green monkey BSC1 cells assessed as induction of sphere like organization at 2.5 uM by immunofluorescence microscopy. As to conditions: Chlorocebus aethiops.
The subject of assay [10] is BSC-1. In words: Antimitotic activity against african green monkey BSC1 cells assessed as induction of monopolar spindles at 20 uM by immunofluorescence microscopy. As to conditions: Chlorocebus aethiops.

Turning to `c1cc(Nc2ccc3c(c2)OCO3)nc(Nc2ccc3c(c2)CCC3)n1`, the outcome in assay [1] and in assay [2] was Active.
For `O=C(c1ccccc1)c1ccccc1Nc1nc(Nc2ccc3c(c2)OCO3)ncc1[N+](=O)[O-]`, the outcome in assay [1] and in [3] was Active.
For `COc1cc(OC)c(/C=C/S(=O)(=O)Cc2ccc(OC)c(NCC(=O)O)c2)c(OC)c1`, the outcome in [4] and in assay [5] was inactive.
In the case of `CCCCNc1nc(Nc2ccc(N3CCN(C)CC3)cc2)ncc1[N+](=O)[O-]`, the outcome in assay [6] and in [7] was Active.
On to `CC(C)CC(CO)Nc1ncc([N+](=O)[O-])c(Nc2ccc3ncsc3c2)n1` (stereo unspecified), for which the outcome in [1], in assay [7] and in assay [8] was Active.
Consider `CC(=O)Nc1ccc(Nc2ccnc(NC(CO)Cc3ccccc3)n2)cc1` (stereo unspecified), for which the result in [1], in assay [7] and in assay [8] was Active.
For the compound `O=[N+]([O-])c1cnc(NC(CO)Cc2ccccc2)nc1Nc1ccc2ncsc2c1` (stereo unspecified), the result in [1], in assay [7] and in assay [8] was Active.
Turning to `O=[N+]([O-])c1cnc(NC2CCCCCC2)nc1Nc1ccc(Cl)c(Cl)c1`, the result in assay [1], in [7] and in [8] was Active.
As to `c1ccc(-c2nccn2-c2ccnc(NC3CCCC3)n2)cc1`, the outcome in assay [1], in assay [7] and in [8] was Active.
With `O=[N+]([O-])c1cnc(NCc2cccs2)nc1Nc1ccc(Cl)c(Cl)c1`, the outcome in assay [1], in assay [7] and in assay [8] was Active.
For `CN1CCN(c2ccc(Nc3ncc([N+](=O)[O-])c(Nc4ccccc4C(=O)c4ccccc4)n3)cc2)CC1`, the outcome in assay [9], in assay [10] and in assay [1] was Active.
With `c1csc(CNc2nccc(Nc3ccc4c(c3)OCO4)n2)c1`, the outcome in assay [1] and in assay [3] was Active.
Consider `CC(=O)Nc1ccc(Nc2ncc([N+](=O)[O-])c(Nc3ccc4ncsc4c3)n2)cc1`, for which the result in assay [1], in [7] and in assay [8] was Active.
On to `CN1CCN(c2ccnc(Cl)n2)CC1`, for which the result in assay [1], in assay [7] and in assay [8] was Active.
As to `CC(C)(C)c1ccc(Nc2ncc([N+](=O)[O-])c(Nc3ccc(Cl)c(Cl)c3)n2)cc1`, the outcome in assay [1], in assay [7] and in assay [8] was Active.
Turning to `O=[N+]([O-])c1cnc(Nc2ccc3ccccc3c2)nc1Nc1ccc(Cl)c(Cl)c1`, the outcome in assay [1], in assay [7] and in assay [8] was Active.
For the compound `CN1CCN(c2ccnc(NCc3cccs3)n2)CC1`, the outcome in assay [1], in assay [7] and in assay [8] was Active.
In the case of `O=C(c1ccccc1)c1ccccc1Nc1nc(Nc2ccc3c(c2)CCC3)ncc1[N+](=O)[O-]`, the result in assay [1], in assay [7] and in assay [8] was Active.
Take `O=[N+]([O-])c1cnc(NC2CCCCCC2)nc1Nc1ccc2ncsc2c1`: the outcome in assay [1], in [7] and in [8] was Active.
With `CCCCNc1ncc([N+](=O)[O-])c(Nc2ccccc2C(=O)c2ccccc2)n1`, the outcome in [1], in assay [7] and in assay [8] was Active.
Turning to `O=C(c1ccccc1)c1ccccc1Nc1ncc([N+](=O)[O-])c(Nc2ccc(Cl)c(Cl)c2)n1`, the result in assay [1], in assay [7] and in [8] was Active.
Consider `CCCCNc1nc(Nc2ccc3ccccc3c2)ncc1[N+](=O)[O-]`, for which the outcome in assay [1], in [7] and in [8] was Active.
`CC(=O)Nc1ccc(Nc2nccc(Nc3ccc4c(c3)CCC4)n2)cc1`: the outcome in assay [1], in assay [7] and in assay [8] was Active.
Consider `CCN(CC)CCCC(C)Nc1ncc([N+](=O)[O-])c(Nc2ccc3ncsc3c2)n1` (stereo unspecified), for which the result in [1], in assay [7] and in assay [8] was Active.
Consider `c1ccc2cc(Nc3nccc(Nc4ccc5c(c4)CCC5)n3)ccc2c1`, for which the outcome in [1], in assay [7] and in [8] was Active.
For `O=C(c1ccccc1)c1ccccc1Nc1nc(Nc2ccc3ccccc3c2)ncc1[N+](=O)[O-]`, the outcome in assay [1], in [7] and in [8] was Active.
On to `NC(=O)c1ccccc1Nc1nc(NCc2cccs2)ncc1[N+](=O)[O-]`, for which the outcome in assay [1], in [7] and in [8] was Active.
Consider `O=[N+]([O-])c1cnc(Nc2ccc3[nH]ccc3c2)nc1Nc1ccc(Cl)c(Cl)c1`, for which the outcome in assay [1], in assay [7] and in [8] was Active.
Regarding `NC(=O)c1ccccc1Nc1nc(NC2CCCC2)ncc1[N+](=O)[O-]`, the result in assay [1], in [7] and in assay [8] was Active.
`O=[N+]([O-])c1cnc(NC(CO)Cc2ccccc2)nc1Nc1ccc(Cl)c(Cl)c1` (stereo unspecified): the outcome in assay [1], in assay [7] and in assay [8] was Active.
With `O=[N+]([O-])c1cnc(Nc2ccc(Cl)c(Cl)c2)nc1Nc1ccc2[nH]ccc2c1`, the outcome in assay [1], in [7] and in assay [8] was Active.
Regarding `O=C(c1ccccc1)c1ccccc1Nc1nc(NC2CCCC2)ncc1[N+](=O)[O-]`, the outcome in assay [1], in assay [7] and in assay [8] was Active.
Consider `Clc1ccc(Nc2nccc(Nc3ccc4c(c3)OCO4)n2)cc1Cl`, for which the outcome in [1], in assay [7] and in assay [8] was Active.
Turning to `O=C(c1ccccc1)c1ccccc1Nc1nc(Nc2ccc3ncsc3c2)ncc1[N+](=O)[O-]`, the result in assay [1], in assay [7] and in assay [8] was Active.
Consider `CCCCNc1ncc([N+](=O)[O-])c(Nc2ccc3[nH]ccc3c2)n1`, for which the outcome in assay [1], in assay [7] and in [8] was Active.
In the case of `c1cc(Nc2nccc(Nc3ccc4c(c3)CCC4)n2)ccn1`, the outcome in assay [1], in assay [7] and in [8] was Active.
In the case of `O=[N+]([O-])c1cnc(NC2CCCC2)nc1Sc1cccc(Cl)c1`, the outcome in [1], in [7] and in assay [8] was Active.
Turning to `CCCCNc1nc(Nc2ccc3[nH]ccc3c2)ncc1[N+](=O)[O-]`, the result in assay [1], in assay [7] and in assay [8] was Active.
`O=[N+]([O-])c1cnc(Nc2ccc3ncsc3c2)nc1Nc1ccc(Cl)c(Cl)c1`: the outcome in [1], in assay [7] and in assay [8] was Active.
For the compound `CC(C)(Nc1ncc([N+](=O)[O-])c(NC2CCCC2)n1)c1ccccc1`, the result in assay [1], in assay [7] and in assay [8] was Active.
As for `O=C(c1ccccc1)c1ccccc1Nc1nc(Nc2ccc(Cl)c(Cl)c2)ncc1[N+](=O)[O-]`, the outcome in assay [1], in [7] and in [8] was Active.
In the case of `CN1CCN(c2ncc([N+](=O)[O-])c(Nc3ccccc3C(=O)c3ccccc3)n2)CC1`, the result in [1], in assay [7] and in assay [8] was Active.
`CCCCNc1ncc([N+](=O)[O-])c(Nc2ccccc2C(N)=O)n1`: the outcome in assay [1], in [7] and in assay [8] was Active.
Regarding `CN1CCN(c2nccc(Nc3ccc4c(c3)OCO4)n2)CC1`, the outcome in assay [1], in [7] and in assay [8] was Active.
For `CC(=O)Nc1ccc(Nc2ncc([N+](=O)[O-])c(Sc3cccc(Cl)c3)n2)cc1`, the result in assay [1], in [7] and in [8] was Active.
Turning to `CCCCNc1ncc([N+](=O)[O-])c(NC2CCCC2)n1`, the outcome in [1], in [7] and in [8] was Active.
`CCCCNc1nc(Nc2ccc(C(C)(C)C)cc2)ncc1[N+](=O)[O-]`: the result in [1], in assay [7] and in [8] was Active.
